Test results from paper PMC7730235, “Discovery of a Novel Class of Covalent Dual Inhibitors Targeting the Protein Kinases BMX and BTK” (International Journal of Molecular Sciences, 2020).

Tests used:
JAK3 = molecular target: T1, JAK3 (Homo sapiens, UniProt P52333); experiment: JAK3 ELISA assay; assay type: biochemical; conditions: Determined in a JAK3 ELISA assay
T1 construct: purchased Reaction Biology Corporation
T1 sequence (P52333 1-1124): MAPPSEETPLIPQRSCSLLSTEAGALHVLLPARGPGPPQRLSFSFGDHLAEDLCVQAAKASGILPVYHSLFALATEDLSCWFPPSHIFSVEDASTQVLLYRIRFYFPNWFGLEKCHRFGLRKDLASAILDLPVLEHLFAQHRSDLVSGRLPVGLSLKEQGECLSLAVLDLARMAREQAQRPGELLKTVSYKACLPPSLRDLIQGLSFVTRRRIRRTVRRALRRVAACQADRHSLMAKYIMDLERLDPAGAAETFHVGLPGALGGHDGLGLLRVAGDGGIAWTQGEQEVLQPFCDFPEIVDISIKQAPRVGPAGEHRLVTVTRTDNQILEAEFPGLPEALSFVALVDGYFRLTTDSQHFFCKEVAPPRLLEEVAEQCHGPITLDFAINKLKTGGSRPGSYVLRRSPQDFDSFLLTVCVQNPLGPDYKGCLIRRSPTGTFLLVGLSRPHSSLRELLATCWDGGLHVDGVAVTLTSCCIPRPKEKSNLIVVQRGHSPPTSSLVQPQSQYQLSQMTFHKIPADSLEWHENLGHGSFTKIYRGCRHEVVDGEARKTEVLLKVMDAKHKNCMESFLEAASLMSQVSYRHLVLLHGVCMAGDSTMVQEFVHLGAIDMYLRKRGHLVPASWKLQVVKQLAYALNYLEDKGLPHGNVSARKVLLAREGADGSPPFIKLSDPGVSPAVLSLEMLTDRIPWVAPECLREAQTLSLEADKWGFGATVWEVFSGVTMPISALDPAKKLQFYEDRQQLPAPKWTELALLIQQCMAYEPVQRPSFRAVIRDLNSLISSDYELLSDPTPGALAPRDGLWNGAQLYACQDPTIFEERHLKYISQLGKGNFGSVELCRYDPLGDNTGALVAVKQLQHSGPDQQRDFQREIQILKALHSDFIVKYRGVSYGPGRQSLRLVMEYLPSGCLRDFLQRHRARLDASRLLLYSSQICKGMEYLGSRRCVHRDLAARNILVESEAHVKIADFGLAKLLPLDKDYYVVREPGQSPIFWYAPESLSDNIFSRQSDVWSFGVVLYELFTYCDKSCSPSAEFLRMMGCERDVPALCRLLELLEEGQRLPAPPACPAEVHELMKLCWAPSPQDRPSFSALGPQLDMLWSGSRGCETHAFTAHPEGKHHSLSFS

[1] = test system: kinases harboring an αD-1 cysteine; experiment: Profiling at 200 nM against kinases with an αD-1 cysteine; assay type: biochemical; conditions: 200 nM compound
Method: If not mentioned differently, in vitro profiling of compounds was performed at Reaction Biology Corporation using the HotSpot™ assay platform.

glutathione (GSH) = experiment: Glutathione reactivity / stability against GSH; assay type: physicochemical; conditions: glutathione (GSH) in PBS buffer, pH 7.4, 5 mM GSH, read-out: half-life (t1/2) against glutathione (converted)
Method: A total of 5 µL of a 10 mM compound stock solution in DMSO were added to 5 µL of a 4 mM Indoprofen solution in PBS as internal standard. The mixture was diluted with PBS buffer to a total volume of 1 mL of component A. Additionally, a freshly prepared solution of 10 mM GSH in PBS buffer was used as component B. A total of 250 µL of each component was mixed and immediately subjected to HPLC analysis for t^0 measurement. The probes were stored at 40 °C in between the respective injections. t1/2 was determined by plotting natural logarithm of AUC/AUC0 against time.

Compound | IC50 (JAK3) | activity at 200 nM on kinases harboring an αD-1 cysteine [1] | half-life at 25 µM (glutathione (GSH))
C=CC(=O)Nc1cccc(-c2c[nH]c3ncc(C(=O)NC4CCCC4)cc23)c1 [Compound 11a, 3-(3-acrylamidophenyl)-N-cyclopentyl-1H-pyrrolo[2,3-b]pyridine-5-carboxamide] | > 10 µM | did not show substantial activity | –
C=CC(=O)Nc1cccc(-c2c[nH]c3ncc(NC(=O)c4cccs4)cc23)c1 [Compound 12c, N-(3-(3-acrylamidophenyl)-1H-pyrrolo[2,3-b]pyridin-5-yl)thiophene-2-carboxamide] | – | – | 9.98 h
